# Results reported in paper PMC10622836, “Crystal structure of histone deacetylase 6 complexed with (R)-lipoic acid, an essential cofactor in central carbon metabolism” (The Journal of Biological Chemistry, 2023).
# Biological target: T1, HDAC6 (histone deacetylase 6) (Danio rerio, UniProt F8W4B7)
# T1 construct: catalytic domain 2
# T1 sequence (F8W4B7 440-798 limits assumed): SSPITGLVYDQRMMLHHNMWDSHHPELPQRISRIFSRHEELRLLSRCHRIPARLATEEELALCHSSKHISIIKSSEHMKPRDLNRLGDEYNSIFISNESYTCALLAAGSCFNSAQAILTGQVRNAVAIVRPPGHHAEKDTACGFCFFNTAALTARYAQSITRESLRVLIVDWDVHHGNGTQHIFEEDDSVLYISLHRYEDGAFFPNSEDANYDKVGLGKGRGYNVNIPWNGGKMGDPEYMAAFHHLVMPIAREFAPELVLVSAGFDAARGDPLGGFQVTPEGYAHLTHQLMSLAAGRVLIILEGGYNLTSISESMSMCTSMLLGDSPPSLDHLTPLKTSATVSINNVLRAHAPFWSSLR
# Experiment: X-ray crystal structure ([…] Å) and ITC
# Format: binding
structure (smiles),measurement,value
O=C(O)CCCC[C@@H](S)CCS [(R)-dihydrolipoic acid],Kd,350 nM
